In data set [1] the test system is New-Zealand albino rabbits. As to the kind of experiment: IOP after repeated administration in rabbits with α-chymotrypsin-increased IOP. Conditions: two drops of 5% solution per eye every 6 hours. It counts as in vivo, rabbit. As for the experimental part: The effectiveness of CHF 1035 after repeated administration was tested in a study versus placebo, in 20 New-Zealand albino rabbits. In order to induce a chronic increase of the IOP, each animal was intraocularly injected with 0.5 mg/day of α-chymotrypsin for five days. Starting from the first day of treatment, two drops of physiological saline containing 5% of the drug were instilled in each eye every 6 hours. The control animals only received physiological saline.
The IOP measurement was performed as described in example 1, before the injection and subsequently every day until the 10th day.
FIG. 2 reports the effect of CHF 1035 on rabbit IOP after α-chymotrypsin injection. Values are reported as mean (SE=1.2-2.6; n=20 per group).

Another data set can be described thus: Ocular tolerability. Type of data set: in vivo.

Each structure is given as a SMILES string.

For `CNC1CCc2c(ccc(OC(=O)C(C)C)c2OC(=O)C(C)C)C1` (racemic) [CHF 1035, (±)-(R,S)-5,6-diisobutyryloxy-2-methylaminotetralin], in data set [1], the “tolerability during the whole cycle of treatment” value was “well tolerated during the whole cycle of treatment and induced no eye irritation and/or discomfort”. In addition, the “IOP after α-chymotrypsin injection versus placebo” value in data set [1] (up to 10th day) is recorded as “significantly lower IOP than animals treated with placebo”. In addition, in the data set “Ocular tolerability”, the “concentration up to which well tolerated (no redness, blinking or other side effects)” value is reported as “up to 5%”.

The values are drawn from patent US6953813B1, “2-Aminotetralin derivatives for the therapy of glaucoma” (Chiesi Farmaceutici S.p.A., priority 1999, dated 2005).
